According to US20070037848A1, “Treatment of neurological conditions” (priority 2003, published 2007):
Entries after “also recorded” stand apart in the source; their conditions may differ.

How the values were obtained:
[1] = test system: patients with probable AD; assay: Phase II clinical trial of clioquinol: cognitive function (ADAS-Cog); assay type: in vivo, human; settings: for increase in ADAS-Cog scores: CQ group
Procedure: On the basis of the pre-clinical data, a Phase II clinical trial was prepared of CQ for the treatment of AD. Inclusion criteria for this Phase II study targeted a region on the ADAS-cog scale (20-45) where patients are moderately demented, still living at home, but anticipating an accelerated deterioration as part of the natural history of AD, over the next 12 months. Because the primary outcome was efficacy, a triple-blind design was chosen.
Criteria for inclusion in the study were:— • (a) informed consent; • (b) a diagnosis of probable AD by NINCDS-ADRDA criteria (McKhann et al., Neurology 34: 939-944, 1984); • (c) AD Assessment Scale-Cognitive (ADAS-Cog) score of 20-45 inclusive (Rosen et al., Am. J. Psychiatry 141: 1356-1364, 1984); • (d) Mini Mental State Examination (MMSE) score of 10-24 inclusive (Folstein et al., J. Psychiatr. Res. 12: 189-198, 1975); • (e) on donepezil hydrochloride 5 mg or 10 mg for at least six months; • (f) relative or carer willing and able to support the trial; • (g) able to complete trial examinations; and • (h) primary sensorial functions intact.
The study was a triple blind, placebo-controlled, randomized design. Thirty-six patients and their carers were recruited to participate, with patients being randomized to receive either CQ or placebo; there were 18 patients in each arm. The duration of the study was 36 weeks. CQ dosage was 125 mg twice daily from weeks 0-12, increased to 250 mg twice daily from weeks 13-24, and finally, 375 mg twice daily from weeks 25-36.
The primary efficacy variable was a change in the baseline score on the AD Assessment Scale (ADAS), which was conducted at baseline and at weeks 4, 12, 24 and 36. This readout was chosen for comparability of treatment effects with current therapeutic agents, such as donepezil, for which efficacy trials also used ADAS as their primary outcome measure (Rogers et al., Neurology 50: 136-145, 1998). Although numerous neuropsychological tests could be considered as secondary measures, it was necessary to avoid fatiguing the subjects at review. Therefore the only other cognitive test performed was the Mini-Mental State Exam (MMSE), which is well characterized and easily implemented. The Clinician's Interview Based Impression of Change (CIBIC), a subjective observational index also used in efficacy trials of acetylcholinesterase inhibitors, was conducted at baseline and at weeks 12, 24 and 36 by an independent researcher who was not part of the study team. Blood samples for measurement of plasma Aβ and plasma zinc and copper were all taken four weekly, by antecubital fossa venepuncture. […]

[2] = test system: plasma Aβ42; assay: Phase II clinical trial: plasma Aβ42; assay type: in vivo, human
Procedure: (§1) Screening procedures consisted of a full medical history, full physical, neurological and ophthalmic examination, blood and urine tests and psychometric tests (ADAS-Cog, MMSE) to confirm the patient's eligibility for the study. Nerve conduction tests and visual evoked responses were conducted between the screening and baseline visits to provide a baseline measurement and to exclude patients with undiagnosed peripheral neuropathies or visual disturbances. Blood was collected for ApoE allotyping and determination of baseline plasma levels of CQ, metals and Aβ prior to randomization.
(§2) The primary efficacy variable was a change in the baseline score on the AD Assessment Scale (ADAS), which was conducted at baseline and at weeks 4, 12, 24 and 36. This readout was chosen for comparability of treatment effects with current therapeutic agents, such as donepezil, for which efficacy trials also used ADAS as their primary outcome measure (Rogers et al., Neurology 50: 136-145, 1998). Although numerous neuropsychological tests could be considered as secondary measures, it was necessary to avoid fatiguing the subjects at review. Therefore the only other cognitive test performed was the Mini-Mental State Exam (MMSE), which is well characterized and easily implemented. […]

[3] = test system: plasma Aβ40; assay: Phase II clinical trial: plasma Aβ40; assay type: in vivo, human
Procedure: as §1, §2

[4] = test system: plasma Zn; assay: Phase II clinical trial: plasma zinc; assay type: in vivo, human
Procedure: as §1, §2

[5] = test system: plasma Cu; assay: Phase II clinical trial: plasma copper; assay type: in vivo, human; settings: administration of CQ vs placebo
Procedure: as §1, §2

[6] = Safety measures / adverse event reporting in the Phase II trial; assay type: in vivo, human
Procedure: (§3) Standard adverse event reporting to a safety monitoring committee, consisting of physicians independent of the study, was conducted to review adverse events at three monthly intervals and on an emergent basis. Following baseline, safety visits were conducted at weeks 2, 4, 8, 12, 16, 20, 24, 26, 28, 32 and 36. The patient and carer were questioned about any changes which might have occurred in the patient's health or medications since the last visit. Standard biochemical, renal and liver function, full blood examination, serum vitamin B12 and folate levels, blood pressure and weight were documented at each visit. A neurological examination was conducted at each visit to assess for peripheral neuropathy and optic neuropathy, and visual evoked responses, nerve conduction studies and a full ophthalmic examination (visual acuity, colour vision, fundal examination and visual field) were conducted at screening, at week 18 and at two weeks after trial completion. An ECG was performed at baseline and at weeks 12 and 24.

[7] = Nerve conduction studies (peripheral nerve latency) in the Phase II trial; assay type: in vivo, human
Procedure: as §1, §3

[8] = test system: Aβ accumulation; settings: cited from earlier work

Oc1c(I)cc(Cl)c2cccnc12 [CQ, iodochlorhydroxyquin]
increase in ADAS-Cog scores ([1]; less-severely affected patients): only small increases
increase in ADAS-Cog scores ([1]; more severely-affected patients): negligible increase
effect of treatment on ADAS-Cog ([1]; more-severely affected group (baseline ADAS-Cog≧25), CQ vs placebo): statistically significant; also recorded: significant effect on preventing cognitive decline
primary clinical outcome of efficacy, ADAS-Cog change from baseline ([1]; whole cohort, CQ vs placebo, 36 weeks, on donepezil): trend
change in plasma Aβ42 ([2]; CQ-treated group, lowering from week 20 onwards, placebo increased): declined; also recorded: very significant lowering
plasma Aβ42 changes by severity ([2]; less-severely affected individuals compared with more-severely affected): more evident
plasma Aβ40 levels ([3]; compared with Aβ42 trends, CQ vs placebo): overall similar trends
plasma Aβ40, placebo vs CQ groups ([3]; weeks 8, 32 and 36, less-severely affected groups): significant differences
rise of plasma Zn levels ([4]; CQ, Phase II trial): 30%
total plasma Zn ([4]; administration of CQ vs placebo): significant elevation
plasma Cu [5]: no effect
overall safety and tolerability ([6]; 36 weeks, 250-750 mg/day): safe and well tolerated
non-attributable serious adverse event (hospitalization) ([6]; CQ arm): syncope due to impaired cardiac function
albumin ([6]; CQ arm, group LFT changes): fell significantly
γ-GT, AST, ALT and bilirubin ([6]; CQ arm, group LFT changes): small significant elevation
reduction in haemoglobin ([6]; CQ arm, week 24, p=0.003): 6.88 g/L
reduction in haemoglobin ([6]; CQ arm, week 36, p=0.03): 5.5 g/L
adverse haematological events ([6]; CQ-treated subjects): no adverse haematological events
risk of impairment in visual acuity, colour vision, visual fields or fundoscopic abnormalities ([6]; between the two arms, McNemar's test): no significant differences
overt symptoms or signs of impaired liver function ([6]; changes at week 24 returning to normal by week 36): No subject developed any overt symptoms or signs of impaired liver function
likelihood of changes in liver function tests (LFT) ([6]; patients on CQ vs placebo): more likely
likelihood to develop diarrhoea ([6]; patients on CQ vs placebo): less likely
Abdominal pain, subjects ([6]; treatment arm n = 18): 2
Constipation, subjects ([6]; treatment arm n = 18): 2
Decreased vitamin B12, subjects ([6]; treatment arm n = 18): 0
Diarrhoea, subjects ([6]; treatment arm n = 18): 1
Impaired nerve conduction, subjects ([6]; treatment arm n = 18): 3
Impaired reflexes, subjects ([6]; treatment arm n = 18): 1
Lymphopoenia, subjects ([6]; treatment arm n = 18): 0
Microalbuminurea, subjects ([6]; treatment arm n = 18): 5
Nausea, subjects ([6]; treatment arm n = 18): 2
Numb legs, subjects ([6]; treatment arm n = 18): 2
Postural Dizziness, subjects ([6]; treatment arm n = 18): 7
Postural Hypotension, subjects ([6]; treatment arm n = 18): 12
Postural Tachyardia, subjects ([6]; treatment arm n = 18): 12
Raised bilirubin, subjects ([6]; treatment arm n = 18): 2
Raised γGT, subjects ([6]; treatment arm n = 18): 2
Subjects with +1 postural symptom ([6]; treatment arm n = 18): 13
Subjects with =1 GI symptom ([6]; treatment arm n = 18): 5
Subjects with =1 abnormal LFT ([6]; treatment arm n = 18): 4
Subjects with =1 neurological symptom ([6]; treatment arm n = 18): 6
Mean number discrete Adverse Events Per subject ([6]; treatment arm, 61/18): 3.38
number of attributable events reported ([6]; treatment group, n = 18): 61
Abdominal pain, Relative Risk ([6]; treatment vs placebo): 2.0
Diarrhoea, Relative Risk ([6]; treatment vs placebo): 0.25
Impaired nerve conduction, Relative Risk ([6]; treatment vs placebo): 3.0
Impaired reflexes, Relative Risk ([6]; treatment vs placebo): 0.5
Microalbuminurea, Relative Risk ([6]; treatment vs placebo): 1.00
Postural Dizziness, Relative Risk ([6]; treatment vs placebo): 2.33
Postural Hypotension, Relative Risk ([6]; treatment vs placebo): 1.09
Raised γGT, Relative Risk ([6]; treatment vs placebo): 2.0
Subjects with +1 postural symptom, Relative Risk ([6]; treatment vs placebo): 0.93
Subjects with =1 GI symptom, Relative Risk ([6]; treatment vs placebo): 1.25
Subjects with =1 abnormal LFT, Relative Risk ([6]; treatment vs placebo): 4.0
Subjects with =1 neurological symptom, Relative Risk ([6]; treatment vs placebo): 1.5
Mean number discrete Adverse Events Per subject, Mean diff ([6]; treatment vs placebo, p = 0.327): 0.611
calf latency (baseline)-calf latency (week 20), Mean within-group change ([7]; Pair 1, paired difference, unit assumed): 0.575 ms
calf latency (baseline)-calf latency (week 36), Mean within-group change ([7]; Pair 2, paired difference, in ms (unit assumed)): .7937
wrist 1 latency week 1-wrist 1 latency week 20, Mean within-group change ([7]; Pair 3, paired difference, in ms (unit assumed)): .5824
wrist 1 latency week 1-wrist 1 latency week 36, Mean within-group change ([7]; Pair 4, paired difference, in ms (unit assumed)): .7875
wrist 2 latency week 1-wrist 2 latency week 20, Mean within-group change ([7]; Pair 5, paired difference, in ms (unit assumed)): 1.000E−01
wrist 2 latency week 1-wrist 2 latency week 36, Mean within-group change ([7]; Pair 6, paired difference, in ms (unit assumed)): .2429
between group differences in nerve conduction parameters ([7]; detailed analyses, to week 36): no significant between group differences
risk of displaying abnormal nerve conduction ([7]; subjects on CQ vs placebo): increased risk
effect on Aβ deposits in transgenic mice ([8]; 30 mg/kg body weight by gavage (Cherny et al., 2001)): effective
inhibiting Aβ accumulation in transgenic mice ([8]; 20-30 mg/kg orally daily, five days per week, two to three months): markedly effective
